Patent US3984548A, “Substituted pyrido[1,2,3,-de]-1,4-benzoxazines as bactericides” (Riker Laboratories, Inc., priority 1974, dated 1976)

How the values were obtained:
Type in all cases: cell-based
Parameters in all cases: key: +: active; -: inactive
Settings in all cases: agar plates, 1 to 100 milligrams/liter
Mima polymorpha = assay: standard plate dilution method, Mima polymorpha
Experimental: (§1) The culture medium employed permits susceptibility testing of fastidious microorganisms towards antibiotics, sulfonamides and other chemotherapeutic agents. Tryptone soy agar (oxoid) of the following composition is the culture medium. In the test procedure, the amount of a compound required to give complete inhibition or no inhibition of the microbial growth on the agar plates was determined. The compound selected for evaluation is added to the agar medium to give concentrations of one, ten and one hundred milligrams per liter. A series of plates with these concentrations is prepared. Plates containing agar alone are included as controls. Ten percent horse serum is added to one series of such plates. Aliquots of broth culture of each of nine species of microorganisms are innoculated onto the agar plates containing the various compound concentrations and onto the control plates. The plates are incubated at 37° C. in a 10 percent carbon dioxide atmosphere for 18 to 25 hours. The microbial growth on each plate is read visually, and minimal inhibitory concentrations are recorded.

Herellea vaginicola = assay: standard plate dilution method, Herellea vaginicola
Experimental: as §1

Bacillus Subtilus = assay: standard plate dilution method, Bacillus subtilus
Experimental: as §1

Streptococcus Sp = assay: standard plate dilution method, Streptococcus sp.
Experimental: as §1

Escherichia coli = assay: standard plate dilution method, Escherichia coli
Experimental: as §1

Staphylococcus aureus = assay: standard plate dilution method, Staphylococcus aureus
Experimental: as §1

Pseudmonas aeruginosa = assay: standard plate dilution method, Pseudomonas aeruginosa
Experimental: as §1

SMILES	Microorganism MP (growth inhibition) (Mima polymorpha)	Microorganism HV (growth inhibition) (Herellea vaginicola)	Microorganism BS (growth inhibition) (Bacillus Subtilus)	Microorganism SS (growth inhibition) (Streptococcus Sp)	Microorganism EC (growth inhibition) (Escherichia coli)	Microorganism SA (growth inhibition) (Staphylococcus aureus)	Microorganism PA (growth inhibition) (Pseudmonas aeruginosa)
CCOC(=O)c1cn2c3c(cc(Cl)cc3c1=O)OCC2C (centres unmarked) [Example 4, ethyl 9-chloro-2,3-dihydro-3-methyl-7-oxo-7H-pyrido[1,2,3-de]-1,4-benzoxazine-6-carboxylate]	-	+	+	-	+	+	-
CCOC(=O)c1cn2c3c(cc(C)cc3c1=O)OCC2C (centres unmarked) [Example 1, ethyl 2,3-dihydro-3,9-dimethyl-7-oxo-7H-pyrido[1,2,3-de]-1,4-benzoxazine-6-carboxylate]	-	+	+	-	+	+	-
Cc1cc2c3c(c1C)c(=O)c(C(=O)O)cn3C(C)CO2 (centres unmarked) [Example 40 (acid)]	+	+	+	+	+	+	+
CCOC(=O)c1cn2c3c(c(Cl)cc(C)c3c1=O)OCC2C (centres unmarked) [Example 37 (ester)]	-	-	+	-	-	-	-
Cc1cc(Cl)c2c(=O)c(C(=O)O)cn3c2c1OCC3C (centres unmarked) [Example 41 (acid)]	-	+	+	-	+	+	-
CC1COc2cccc3c(=O)c(C(=O)O)cn1c23 (centres unmarked) [Example 19, 2,3-dihydro-3-methyl-7-oxo-7H-pyrido[1,2,3-de]-1,4-benzoxazine-6-carboxylic acid]	-	+	+	-	+	+	-
O=C(O)c1cn2c3c(cccc3c1=O)OCC2 [Example 18, 2,3-dihydro-7-oxo-7H-pyrido[1,2,3-de]-1,4-benzoxazine-6-carboxylic acid]	-	-	+	-	-	-	-
CC1COc2ccc(F)c3c(=O)c(C(=O)O)cn1c23 (centres unmarked) [Example 25, 8-fluoro-2,3-dihydro-3-methyl-7-oxo-7H-pyrido[1,2,3-de]-1,4-benzoxazine-6-carboxylic acid]	-	+	+	+	+	-	-
